# According to US20220401514A1, “ANTIMICROBIAL, BACTERIOPHAGE-DERIVED POLYPEPTIDES AND THEIR USE AGAINST GRAM-NEGATIVE AND ACID-FAST BACTERIA” (CONTRAFECT CORPORATION, priority 2019, published 2022):
# Read-outs that look alike come from different tables or passages of the source.
# Experiments:
# M. fortuitum = experiment: 45 hr MIC against M. fortuitum (NTM); type: cell-based, Mycobacterium fortuitum; settings: M. fortuitum subsp. Fortuitum da Costa Cruz. ATCC 6841
# [1] = tested on: P. aeruginosa strain CFS-1292; experiment: MIC in presence and absence of NaCl (140 mM); type: cell-based, Pseudomonas aeruginosa
# Procedure: Certain Chp peptides were evaluated over a range of physiological NaCl levels and pH values, and were further evaluated for activity in the presence of various divalent cations.
# Enterobacter cloacae = experiment: microbe, parasite or virus in culture; type: cell-based
# Method in brief: (§1)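 Peptide MICs were determined by growth inhibition in CAA medium supplemented with human serum.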
# Escherichia coli = experiment: microbe, parasite or virus in culture; type: cell-based
# Method in brief: as §1
# M. smegmatis = experiment: 45 hr MIC against M. smegmatis (NTM), Mueller Hinton broth; type: cell-based, Mycobacterium smegmatis
# [2] = tested on: carbapenem-resistant bacterial strains; experiment: organism not typed; type: cell-based
# Description: (§2) Determination of Minimal Inhibitory Concentrations (MIC).
# [3] = tested on: P. aeruginosa strain CFS-1292; experiment: MIC in presence and absence of Survanta pulmonary surfactant; type: cell-based, Pseudomonas aeruginosa
# Klebsiella pneumoniae [4] = experiment: microbe, parasite or virus in culture; type: cell-based; settings: CAA without human serum
# Acinetobacter baumannii = experiment: microbe, parasite or virus in culture; type: cell-based
# Pseudomonas aeruginosa = experiment: microbe, parasite or virus in culture; type: cell-based; settings: for MIC: CAA without human serum
# [5] = tested on: M. kansasii Hauduroy ATCC 12478; experiment: 45 hr MIC against M. kansasii (NTM), Mueller Hinton broth; type: cell-based, Mycobacterium kansasii
# [6] = tested on: Mycobacterium tuberculosis strains
# Procedure: MIC values for various Chp peptides were determined using the CLSI method for broth microdilution in 96-well microtiter format.
# Next, MIC values for various Chp peptides were determined using the CLSI method above for broth microdilution in 96-well microtiter format for two different Mycobacterium tuberculosis strains. The MIC was determined as explained above for the NTM strains.
# M. intracellulare = experiment: 45 hr MIC against M. intracellulare (NTM); type: cell-based, Mycobacterium intracellulare; settings: M. intracellulare (Cuttino and McCabe) Runyon ATCC 13950
# [7] = tested on: P. aeruginosa strain CFS-1292; experiment: MIC at pH 6, pH 7 and pH 8; type: cell-based, Pseudomonas aeruginosa
# Procedure: The Chp peptides were further evaluated at varying pH levels. The MIC values were determined at pH 6, pH 7, and pH 8 for 18 different Chp peptides against P. aeruginosa strain CFS-1292. […]
# [8] = tested on: carbapenem-resistant P. aeruginosa clinical isolate CFS-1292; experiment: MIC by modified CLSI broth microdilution against P. aeruginosa CFS-1292 (CAA, CAA + human serum); type: cell-based, Pseudomonas aeruginosa
# [9] = tested on: P. aeruginosa strain CFS-1292; experiment: MIC in presence of divalent cations (calcium chloride, magnesium sulfate); type: cell-based, Pseudomonas aeruginosa
# Procedure: Next, Chp peptides were evaluated in the presence of different divalent cations. […]; (2) in the presence of 2 mM calcium chloride alone; (3) in the presence of 1 mM magnesium sulfate alone; and (4) in the presence of both 2 mM calcium chloride and 1 mM magnesium sulfate. […]
# Klebsiella pneumoniae [10] = type: cell-based
# Procedure: as §2
# Additional MIC testing was performed for several peptides against the ESKAPE pathogens Escherichia coli, Enterobacter cloacae, Klebsiella pneumoniae, and Acinetobacter baumannii, in CAA supplemented with human serum (Table D).
# M. scrofulaceum = experiment: 45 hr MIC against M. scrofulaceum (NTM); type: cell-based, Mycobacterium scrofulaceum; settings: M. scrofulaceum Prissick and Masson ATCC 19981
# [11] = E. cloacae isolates (n per peptide in table)
# [12] = E. coli isolates (n per peptide in table)
# [13] = A. baumannii isolates (n per peptide in table)
# [14] = P. aeruginosa isolates (n per peptide in table)
# [15] = K. pneumoniae isolates (n per peptide in table)
sequence,measurement,setting,value
MVRRRRLRRRISRRIFRRTVARVGRRRRSFRGGIRF [Chp1],45 hr MIC,M. fortuitum,16 µg/mL
same,Fold change in MIC,[1]; CAA + 140 mM NaCl versus CAA without added NaCl,1
same,"MIC, CAA + 140 mM NaCl","[1]; CAA + 140 mM NaCl, P. aeruginosa CFS-1292",1 µg/mL
same,"MIC, CAA (no added NaCl)","[1]; CAA, no added NaCl, P. aeruginosa CFS-1292",1 µg/mL
same,MIC50,Enterobacter cloacae; [11],2 µg/mL
same,MIC100,Enterobacter cloacae; [11],4 µg/mL
same,MIC Range,Enterobacter cloacae; [11],2 to 4 µg/mL
same,MIC,"Enterobacter cloacae; Enterobacter cloacae (ATCC 13047, MIC control strain), RSC 1240, CAA without human serum",8 µg/mL
same,MIC,"Enterobacter cloacae; Enterobacter cloacae ATCC 13047, CAA supplemented with human serum",4 µg/mL
same,MIC,"Escherichia coli; E. coli (ATCC 25922, MIC control strain), RSC 813, CAA without human serum",8 µg/mL
same,MIC,"Escherichia coli; E. coli (HM346, colon, Crohn's disease), RSC 1212, CAA without human serum",8 µg/mL
same,MIC50,Escherichia coli; [12],2 µg/mL
same,MIC100,Escherichia coli; [12],4 µg/mL
same,MIC Range,Escherichia coli; [12],1 to 4 µg/mL
same,MIC,"Escherichia coli; Escherichia coli ATCC 25922, CAA supplemented with human serum",2 µg/mL
same,45 hr MIC,"M. smegmatis; M. smegmatis MC^2 155, Run #1",8 µg/mL
same,45 hr MIC,"M. smegmatis; M. smegmatis MC^2 155, Run #2",16 µg/mL
same,MIC,[2]; carbapenem-resistant isolate PA19,2 µg/mL
same,MIC,[2]; carbapenem-resistant isolate PA20,4 µg/mL
same,MIC,[2]; carbapenem-resistant isolate PA21,4 µg/mL
same,MIC,[2]; carbapenem-resistant isolate PA22,4 µg/mL
same,MIC,[2]; carbapenem-resistant isolate PA23,4 µg/mL
same,MIC,[2]; carbapenem-resistant isolate PA24,4 µg/mL
same,MIC,[2]; carbapenem-resistant isolate WLC-452,2 µg/mL
same,MIC,[3]; CAA media + 0.19 mg/mL Survanta,2 µg/mL
same,MIC,[3]; CAA media + […] Survanta,2 µg/mL
same,MIC,[3]; CAA media alone,1 µg/mL
same,MIC,"Klebsiella pneumoniae [4]; Klebsiella pneumoniae (ATCC 10031, MIC control strain), RSC 814",16 µg/mL
same,MIC,"Klebsiella pneumoniae [4]; Klebsiella pneumoniae (g2-3 HM35K), RSC 1138",16 µg/mL
same,MIC,"Klebsiella pneumoniae [4]; Klebsiella sp. (HM-44; colon, Crohn's disease), RSC 1139",8 µg/mL
same,MIC,"Klebsiella pneumoniae [4]; Klebsiella spp. (HM-223; gut of Crohn's disease patient), RSC 1131",8 µg/mL
same,MIC50,Acinetobacter baumannii; [13],2 µg/mL
same,MIC100,Acinetobacter baumannii; [13],4 µg/mL
same,MIC Range,Acinetobacter baumannii; [13],1 to 4 µg/mL
same,MIC,"Acinetobacter baumannii; Acinetobacter baumannii (clinical isolate HSS), RSC 30, CAA without human serum",8 µg/mL
same,MIC,"Acinetobacter baumannii; Acinetobacter baumannii (clinical isolate HSS), RSC 32, CAA without human serum",8 µg/mL
same,MIC,"Acinetobacter baumannii; Acinetobacter baumannii ATCC BAA 747, CAA supplemented with human serum",2 µg/mL
same,MIC,"Pseudomonas aeruginosa; P. aeruginosa 453 (Human clinical isolate, HSS), RSC 1292",8 µg/mL
same,MIC,"Pseudomonas aeruginosa; P. aeruginosa (ATCC 14213, human hip wound), RSC 1111",8 µg/mL
same,MIC,"Pseudomonas aeruginosa; P. aeruginosa (ATCC 15152, abscess in middle ear), RSC 1110",4 µg/mL
same,MIC,"Pseudomonas aeruginosa; P. aeruginosa (ATCC 15692, infected wound), RSC 489",4 µg/mL
same,MIC,"Pseudomonas aeruginosa; P. aeruginosa (ATCC 15692, infected wound), RSC 1115",8 µg/mL
same,MIC,"Pseudomonas aeruginosa; P. aeruginosa (ATCC 17646, human liver abscess), RSC 1109",8 µg/mL
same,MIC,"Pseudomonas aeruginosa; P. aeruginosa (ATCC 19142, tracheobronchial secretion), RSC 1108",8 µg/mL
same,MIC,"Pseudomonas aeruginosa; P. aeruginosa (ATCC 25102, bacteriophage host), RSC 1114",8 µg/mL
same,MIC,"Pseudomonas aeruginosa; P. aeruginosa (ATCC 27853, MIC control strain), RSC 815",8 µg/mL
same,MIC,"Pseudomonas aeruginosa; P. aeruginosa (ATCC BAA-27, lab strain), RSC 1113",8 µg/mL
same,MIC,"Pseudomonas aeruginosa; P. aeruginosa (PAO1, alternate source, HER1018), RSC 490",8 µg/mL
same,MIC50,Pseudomonas aeruginosa; [14],2 µg/mL
same,MIC100,Pseudomonas aeruginosa; [14],4 µg/mL
same,MIC Range,Pseudomonas aeruginosa; [14],1 to 4 µg/mL
same,45 hr MIC,[5],4 µg/mL
same,MIC,[6]; Mycobacterium tuberculosis (Zopf) Lehmann and Neumann ATCC 25177,64 µg/mL
same,MIC,[6]; Mycobacterium tuberculosis (Zopf) Lehmann and Neumann ATCC 35817,32 µg/mL
same,45 hr MIC,M. intracellulare,4 µg/mL
same,MIC,[7]; CAA media (pH 7),1 µg/mL
same,MIC,[7]; pH 6,0.5 µg/mL
same,MIC,[7]; pH 7,1 µg/mL
same,MIC,[7]; pH 8,1 µg/mL
same,MIC (μg/mL) against CFS-1292 in 100% CAA (1st run/2nd run),"[8]; 100% CAA, 1st run or single value",1 µg/mL
same,MIC (μg/mL) against CFS-1292 in CAA + […] human serum,[8]; CAA + […] human serum,1 µg/mL
same,MIC,[9]; CAA media + 1 mM MgSO4,1 µg/mL
same,MIC,[9]; CAA media + 2 mM CaCl2,2 µg/mL
same,MIC,[9]; CAA media + + 1 mM MgSO4,1 µg/mL
same,MIC,[9]; CAA media alone,1 µg/mL
same,MIC50,Klebsiella pneumoniae [10]; [15],2 µg/mL
same,MIC100,Klebsiella pneumoniae [10]; [15],2 µg/mL
same,MIC Range,Klebsiella pneumoniae [10]; [15],1 to 4 µg/mL
same,MIC,"Klebsiella pneumoniae [10]; Klebsiella pneumoniae HM-44, CAA supplemented with human serum",1 µg/mL
same,45 hr MIC,M. scrofulaceum,4 µg/mL
